Results published in PMC6472409, “Dishevelled-3 conformation dynamics analyzed by FRET-based biosensors reveals a key role of casein kinase 1” (Nature Communications, 2019).
Several values for one entry are separate records, joined by “and”; a condition that tells them apart may be missing. Identical values can stand only once.

Assays:
Format in all cases: cell-based, human
[1] = system: Wnt/β-catenin pathway; assay: Dual Luciferase TopFlash/Renilla Reporter Assay; details: for TopFlash relative to ctrl (= 1): Suppl. Fig. 2a; for TopFlash FlAsH III (CK1e-/-), relative to ctrl (= 1): Suppl. Fig. 4f, CK1e-/- cells
Description: Cells were transfected 24 h after seeding with 0.1 μg of Super8X TopFlash construct, 0.1 μg of Renilla luciferase construct, and 0.1 μg of corresponding plasmids per well for 6 h in a 24-well plate. As for the ECFP-DVL3 FIII wt stable cell lines, transfection was followed by 4 h induction of tetracycline (1 µg/ml) and 8 h treatment of CM:DMEM (1:1 ratio). For performing this assay, Promega Dual Luciferase assay kit (Promega, #E1910) was used according to the manufacturer’s instructions. Luminescence was measured by a Hidex Bioscan Plate Chameleon Luminometer. Results are depicted as the ratio of TopFlash and Renilla signal (TopFlash fold induction), which was normalized for each experiment to certain control column (normalized TopFlash fold induction). Data were analyzed by MS Excel 2007 and GraphPad Prism 6 and results were shown as the means ± S.D. (number of experiments indicated ad hoc).

[2] = system: DVL3 subcellular localization in HEK293 cells; assay: DVL3 subcellular localization (punctae/even), immunofluorescence
[3] = system: DVL3 membrane recruitment by FZD6 in HEK293 cells; assay: FZD6-dependent membrane recruitment of DVL3, immunofluorescence; set-up: key to Non-recruited (DVL3 membrane recruitment): number of cells out of 100 positive cells scored; details: Fig 8c
Description: First, we analyzed the preferred subcellular localization of DVL3 (as introduced in Fig. 2c)[10],[14]. […] Next, we investigated if DVL3 conformation correlates with the capacity of DVL3 to be recruited by FZD6, a key Wnt receptor, to the plasma membrane. For this purpose, we co-expressed FZD6 and analyzed membrane recruitment of DVL3 in FZD6-positive cells by immunofluorescence. Individual cells were categorized as: not recruited (Fig. 8b, no DVL3 in the membrane), partially recruited (clear membrane as well as cytoplasmic localization), and fully recruited (predominantly plasma membrane localization, Fig. 8c, left). […] In the last readout we analyzed the capacity of DVL3 to activate downstream Wnt/β-catenin pathway monitored by TopFlash reporter assay (Fig. 8d). […] On the other hand, under conditions that favor the open conformation both activation as well as inhibition of the Wnt/β-catenin pathway was evident.
For immunofluorescence, cells were seeded (40,000 per well) on 24-well plates with gelatin-coated coverslips and transfected, as indicated, with 0.1 μg of each corresponding plasmid (0.3 μg of mCherry-FZD6) for 6 h. For western blotting and Dual Luciferase TopFlash/Renilla Reporter Assay, cells were seeded (60,000 per well) directly on 24-well plates with 0.1 μg of each corresponding plasmid (if not indicated otherwise) for 6 h. For coimmunoprecipitation, cells were seeded (4.4 × 10^6) on 10-cm dishes and transfected with 1 μg of each corresponding plasmid. The next day after seeding, cells were transfected using polyethyleneimine (PEI) in a stoichiometry of 6 μl of PEI per 1 μg of DNA for 6 h and were harvested 24 h after transfection. The following plasmids used in HEK293 cells have been described previously: FLAG-DVL3 wt[47], CK1ϵ wt[48], mCherry-FZD6 (ref. [37]), and dominant-negative CK1ϵ P3 (ref. [33]). The ECFP-DVL3 wt plasmid was made by Gateway Technology (via LR recombination according to the manufacturer’s instructions; Thermo Fisher Scientific, #11791020) from the donor plasmid pDONR221 DVL3 (DNASU, #FLH178665.01x) and the destination plasmid pdECFP (LMBP, #4548). The HA-DVL3 wt plasmid was made by Gateway Technology from the donor plasmid pDONR221 DVL3 (DNASU, #FLH178665.01x) and the destination plasmid pcDNA3.1 N-term HA (gift from Erich Nigg).
Cells were seeded on gelatin-coated coverslips in 24-well plates and were transfected the next day. Cells were fixed 24 h later in fresh 4% paraformaldehyde, permeabilized with 0.5% Triton X-100, blocked with PBS/BSA/Triton/Azide buffer (PBTA) [3% (wt/vol) BSA, 0.25% Triton, 0.01% NaN3] for 1 h, and incubated overnight with primary antibodies (in dilution 1:500) in PBTA at 4 °C. The next day, the coverslips were washed in PBS and incubated with secondary antibodies conjugated to Alexa Fluor 488 (Invitrogen A11001) or/and Alexa Fluor 594 (Invitrogen A11058) (all in dilution 1:1000), washed with PBS [in case of samples containing FLAG-DVL3 WT and derived variants stained with DAPI (1:5000)], and all coverslips were mounted on microscopic slides. Cells were then visualized on an Olympus IX51 fluorescent microscope using ×40 air or ×100 oil objectives and/or an Olympus Fluoview 500 confocal laser scanning microscope IX71 using ×100 oil objective. One hundred positive cells per experiment (n = 3) were analyzed and scored according to their phenotype into two/three categories (punctae/even); or non-recruited/partially/fully recruited for FZD6-dependent recruitment of DVL3. The antibodies used were as follows: anti-FLAG M2 (Sigma-Aldrich, #F1804), anti-DVL3 (Santa Cruz, #sc-8027), anti-CK1ɛ (Santa Cruz, #sc-6471), anti-RFP (Chromotek, #5h9) and anti-GFP (Fitzgerald, #20R-GR-011).

[4] = sensor FlAsH III, replicate of grid row r5
[5] = sensor FlAsH III, replicate of grid row r6
[6] = sensor FlAsH III, replicate of grid row r7
[7] = Fig 2c, DVL3-FLAG, 10 μM inhibitor, replicate 1, 100 cells
[8] = Fig 8b, ECFP-DVL3 wt, HEK293 wt, inhibitor, exp1-exp3, 100 cells each, listed as INH

SMILES: Nc1nccc(-c2c(-c3ccc(F)cc3)ncn2C2CCCCC2)n1 [PF670462, reference compound]
- TopFlash/Renilla activation, in words ([1]; DVL3 wt + inhibitor, HEK293 cells, Fig 8d): no (or negligible) TopFlash/Renilla activation
- TopFlash relative to DVL3 wt (= 1) ([1]; Fig 8d, replicate of grid row r4): 0.13
- TopFlash relative to DVL3 wt (= 1) ([1]; Fig 8d, replicate of grid row r5): 0.1
- TopFlash relative to DVL3 wt (= 1) ([1]; Fig 8d, replicate of grid row r6): 0.2
- TopFlash relative to ctrl (= 1) ([1]; sensor FlAsH I, replicate of grid row r5): 0.09288
- TopFlash relative to ctrl (= 1) ([1]; sensor FlAsH I, replicate of grid row r6): 0.06555
- TopFlash relative to ctrl (= 1) ([1]; sensor FlAsH I, replicate of grid row r7): 0.095
- TopFlash relative to ctrl (= 1) ([1]; sensor FlAsH II, replicate of grid row r5): 0.04123
- TopFlash relative to ctrl (= 1) ([1]; sensor FlAsH II, replicate of grid row r6): 0.0401
- TopFlash relative to ctrl (= 1) ([1]; sensor FlAsH II, replicate of grid row r7): 0.09362
- TopFlash relative to ctrl (= 1) [1, 4]: 0.07646
- TopFlash relative to ctrl (= 1) [1, 5]: 0.1238
- TopFlash relative to ctrl (= 1) [1, 6]: 0.1277
- TopFlash relative to ctrl (= 1) ([1]; sensor FlAsH IV, replicate of grid row r5): 0.0466
- TopFlash relative to ctrl (= 1) ([1]; sensor FlAsH IV, replicate of grid row r6): 0.04626
- TopFlash relative to ctrl (= 1) ([1]; sensor FlAsH IV, replicate of grid row r7): 0.05626
- TopFlash FlAsH III (CK1e-/-), relative to ctrl (= 1) [1, 4]: 0.8229
- TopFlash FlAsH III (CK1e-/-), relative to ctrl (= 1) [1, 5]: 0.6189
- TopFlash FlAsH III (CK1e-/-), relative to ctrl (= 1) [1, 6]: 1.097
- Even (%) [2, 7]: 1%
- Punctae (%) [2, 7]: 99%
- Punctae (%) ([2]; Fig 2c, DVL3-FLAG, 10 μM inhibitor, replicate 2, 100 cells): 98%
- Punctae (%) ([2]; Fig 2c, DVL3-FLAG, 10 μM inhibitor, replicate 3, 100 cells): 99%
- Even (%) [2, 8]: 5% and 11% and 8%
- Punctae (%) [2, 8]: 95% and 89% and 92%
- Fully recruited (DVL3 membrane recruitment) ([3]; exp1): 1
- Non-recruited (DVL3 membrane recruitment) ([3]; exp1): 77
- Partially recruited (DVL3 membrane recruitment) ([3]; exp1): 22
- Fully recruited (DVL3 membrane recruitment) ([3]; exp2): 10
- Non-recruited (DVL3 membrane recruitment) ([3]; exp2): 66
- Partially recruited (DVL3 membrane recruitment) ([3]; exp2): 24
- Fully recruited (DVL3 membrane recruitment) ([3]; exp3): 15
- Non-recruited (DVL3 membrane recruitment) ([3]; exp3): 59
- Partially recruited (DVL3 membrane recruitment) ([3]; exp3): 26
